Where “and” joins values, the source holds several entries; their conditions need not be identical. Equal entries are not always repeated. Peptide text beside a SMILES is read from it.
Experiments:
[1] = Maximum hemodynamic changes and total toxicity score after standard heparin reversal, cell adhesion ligand analogs, canine study; conditions: dogs, agent over 10 seconds; for Maximum hemodynamic change, Mean BP: standard heparin 150 IU/kg IV; for Maximum hemodynamic change, Mean BP / Maximum hemodynamic change, CO / Maximum hemodynamic change, HR / Maximum hemodynamic change, VO2: 5 minutes; for Maximum hemodynamic change, CO / Maximum hemodynamic change, HR / Maximum hemodynamic change, VO2: standard heparin; for Total Toxicity Score: standard unfractionated heparin
Protocol: In these studies, the anticoagulation-reversing agents were administered over a 10 second interval to maximize the hemodynamic effects.
Hemodynamic studies were conducted by measuring mean blood pressure (Mean BP) in mm Mercury, maximum percent changes in cardiac output (CO) and systemic oxygen consumption (VO2), and heart rate (HR) in beats per minute. Measurements and calculations were made at baseline, before administration of standard, unfractionated heparin, 3 minutes before reversal, every 30 seconds for 5 minutes after reversal.
Total toxicity scores (TTS) were developed in accordance with the method described hereinabove that reflected maximum declines in each of four parameters (MAP, CO, VO2 and HR) over the first 5 minutes after reversal.

[2] = Maximum hemodynamic changes and total toxicity score after Enoxaparin reversal, canine study; conditions: dogs, agent over 10 seconds; for Maximum hemodynamic change, Mean BP: Enoxaparin 100 IU/kg; for Maximum hemodynamic change, Mean BP / Maximum hemodynamic change, CO / Maximum hemodynamic change, HR / Maximum hemodynamic change, VO2: 5 minutes; for Total Toxicity Score (TTS) / Maximum hemodynamic change, CO / Maximum hemodynamic change, HR / Maximum hemodynamic change, VO2: Enoxaparin
Protocol: (§1) Seven female dogs (mean weight 15-20 kg) received intravenous standard, unfractionated heparin (150 IU/kg IV) or LMWH (Enoxaparin, Rhone-Poulac, France; 100 IU/kg factor Xa activity) followed by reversal with commercial salmine protamine (n-protamine purchased from Eli Lilly, Indianapolis, Ind., 1.5 mg/kg (100 IU/mg) IV) or an anticoagulation-reversing agent which is a protamine-like peptide variant identified hereinbelow. In these studies, the anticoagulation-reversing agents were administered over a 10 second interval to maximize the hemodynamic effects.

[3] = test system: LMWH (Enoxaparin); experiment: Factor Xa and IIa reversal after LMWH Enoxaparin, canine study; format: in vivo; conditions: dogs, 3 min
Protocol: Similar studies were conducted to assess the ability of the protamine-like peptide analogs described in this section to reverse the anticoagulation effects of the LMWH, Enoxaparin. FIG. 5a through FIG. 5d are graphical representations of LMWH anticoagulation activities achieved by n-protamine (Protamine [+21]), and compounds [+18BE], [+18KDEL], and [+18RGD] plotted as a percent of reversal against time in minutes. […] Referring to FIG. 5c, compound [+18RGD] dramatically outperforms n-protamine in reversing the heparin antifactor Xa activity of Enoxaparin.

[4] = Percent change in platelet count after standard heparin reversal, cell adhesion ligand analogs, canine study; format: in vivo; conditions: dogs, agent over 10 seconds
Protocol: In addition to hemodynamic changes, Table 15 lists the percent change in platelet count following administration of n-protamine and the selected variants, as well as the factor Xa and factor IIa reversal, as a percent change at 3 minutes post administration of the compound.

[5] = test system: standard, unfractionated heparin; experiment: Factor Xa and IIa reversal after standard heparin, cell adhesion ligand analogs, canine study; format: in vivo; conditions: dogs, 3 min post administration
Protocol: Anticoagulation reversal was assessed by a number of standard coagulation tests performed upon samples of venous blood in the manner described hereinabove. Measurements were made 3 minutes prior to heparin reversal (baseline) and 3 minutes, 10 minutes, and 30 minutes post-administration of the heparin reversal agent. […] Referring to FIGS. 4a through 4d, compound [+18RGD] performs as well, or better, than n-protamine in the standard coagulation tests performed in these studies.

[6] = Percent change in platelet count after Enoxaparin reversal, canine study; format: in vivo; conditions: dogs, agent over 10 seconds
Protocol: as §1

[7] = test system: standard, unfractionated heparin; experiment: Percent reversal of standard heparin anticoagulation by variant peptides and protamine, in vivo canine study, coagulation tests; set-up: species or system dogs; conditions: for Percent reversal of heparin anticoagulation, ACT: heparin 150 IU/kg IV, agent 1.5 mg/kg IV over 10 seconds
Protocol: Data are expressed as a mean ±1 SD. Statistical analysis using linear regression for determination of correlation coefficients, and analysis of variance (ANOVA) or unpaired two-way Student's t-test; p<0.05 was accepted as statistically significant.
Anticoagulation reversal was assessed by a number of standard coagulation tests performed upon samples of venous blood: activated clotting time (ACT), prothrombin time (PT), activated partial thromboplastin time (aPTT), thrombin clotting time (TCT), heparin concentration by assay for FXa inhibitory activity (FXa), white cell count (WBC), and platelet counts (PLT). Measurements were made 3 minutes prior to heparin reversal (baseline) and 3 minutes and 30 minutes post-administration of the heparin reversal agent. The "Heparin" row sets forth the observed reversal as a consequence of expected heparin metabolism or degradation alone.

[8] = Hemodynamic studies and total toxicity score after standard heparin reversal, canine study; conditions: dogs
Protocol: As used hereinafter, the peptides will be identified by their total cationic charge value, e.g., [+8], [+16], etc.
Hemodynamic studies were conducted by measuring mean arterial pressure (MAP), heart rate (HR), and maximum percent changes in cardiac output (CO) and systemic oxygen consumption (VO2).
Total toxicity scores (TTS) were developed that reflected maximum declines in each of four parameters (MAP, CO, VO2 and HR) over the first 5 minutes after reversal, the latter being the time of expected greatest adverse hemodynamic effect. The maximum changes occurring in an individual dog over the first 5 minutes were divided by the standard deviation derived from the entire group of tested animals and the four scores were added, resulting in a TTS for each individual dog. The TTS values for each dog were then summed to obtain an average TTS and SD for each peptide studied.

CC(=O)N[C@@H](CCC(=O)O)C(=O)N[C@@H](C)C(=O)N[C@@H](CCCNC(=N)N)C(=O)N[C@@H](CCCNC(=N)N)C(=O)N[C@@H](C)C(=O)N[C@@H](C)C(=O)N[C@@H](CCCNC(=N)N)C(=O)N[C@@H](CCCNC(=N)N)C(=O)N[C@@H](C)C(=O)N[C@@H](CCCNC(=N)N)C(=O)N[C@@H](CCCNC(=N)N)C(=O)N[C@@H](C)C(=O)N[C@@H](C)C(=O)N[C@@H](CCCNC(=N)N)C(=O)N[C@@H](CCCNC(=N)N)C(=O)N[C@@H](C)C(=O)N[C@@H](CCCNC(=N)N)C(=O)N[C@@H](CCCNC(=N)N)C(=O)N[C@@H](C)C(=O)N[C@@H](C)C(=O)N[C@@H](CCCNC(=N)N)C(=O)N[C@@H](CCCNC(=N)N)C(=O)N[C@@H](C)C(=O)N[C@@H](CCCNC(=N)N)C(=O)N[C@@H](CCCNC(=N)N)C(=O)N[C@@H](C)C(=O)N[C@@H](C)C(=O)N[C@@H](CCCNC(=N)N)C(=O)N[C@@H](CCCNC(=N)N)C(=O)N[C@@H](C)C(=O)N[C@@H](CCCNC(=N)N)C(=O)N[C@@H](CCCNC(=N)N)C(=O)NCC(=O)N[C@H](C(=O)N[C@@H](CCCCN)C(=O)N[C@@H](CC(=O)O)C(=O)N[C@@H](CCC(=O)O)C(=O)N[C@@H](CC(C)C)C(=O)O)C(C)C [[+18KDEL], acetyl-EA(R2 A2 R2 A)4 R2 GVKDEL] (Ac-EARRAARRARRAARRARRAARRARRAARRARRGVKDEL-OH)
Maximum hemodynamic change, Mean BP [1]: -5 mm Mercury | Maximum hemodynamic change, CO [1]: -12% | Maximum hemodynamic change, HR [1]: -14 beats/min | Maximum hemodynamic change, VO2 [1]: -6% | Total Toxicity Score [1]: -3.53 ± 1.65 | Maximum hemodynamic change, Mean BP [2]: -6 mm Mercury | Total Toxicity Score (TTS) [2]: -5.00 and -5.0 ± 3.44 | Maximum hemodynamic change, CO [2]: -14% | Maximum hemodynamic change, HR [2]: -11 beats/min | Maximum hemodynamic change, VO2 [2]: -10% | IIa Reversal [3]: 98% | Xa Reversal [3]: 48% | Platelet (percent change in platelet count) [4]: -24% | IIa Reversal [5]: 94% | Xa Reversal [5]: 97% | Platelet (percent change in platelet count) [6]: -40%

CC(=O)N[C@@H](CCC(=O)O)C(=O)N[C@@H](C)C(=O)N[C@@H](CCCNC(=N)N)C(=O)N[C@@H](CCCNC(=N)N)C(=O)N[C@@H](C)C(=O)N[C@@H](C)C(=O)N[C@@H](CCCNC(=N)N)C(=O)N[C@@H](CCCNC(=N)N)C(=O)N[C@@H](C)C(=O)N[C@@H](CCCNC(=N)N)C(=O)N[C@@H](CCCNC(=N)N)C(=O)N[C@@H](C)C(=O)N[C@@H](C)C(=O)N[C@@H](CCCNC(=N)N)C(=O)N[C@@H](CCCNC(=N)N)C(=O)N[C@@H](C)C(=O)N[C@@H](CCCNC(=N)N)C(=O)N[C@@H](CCCNC(=N)N)C(=O)N[C@@H](C)C(=O)N[C@@H](C)C(=O)N[C@@H](CCCNC(=N)N)C(=O)N[C@@H](CCCNC(=N)N)C(=O)N[C@@H](C)C(=O)N[C@@H](CCCNC(=N)N)C(=O)N[C@@H](CCCNC(=N)N)C(=O)N[C@@H](C)C(=O)N[C@@H](C)C(=O)N[C@@H](CCCNC(=N)N)C(=O)N[C@@H](CCCNC(=N)N)C(=O)N[C@@H](C)C(=O)N[C@@H](CCCNC(=N)N)C(=O)N[C@@H](CCCNC(=N)N)C(=O)NCC(=O)N[C@@H](CCCNC(=N)N)C(=O)NCC(=O)N[C@@H](CC(=O)O)C(=O)N[C@@H](CO)C(=O)N1CCC[C@H]1C(=O)N[C@@H](C)C(N)=O [[+18RGD], acetyl-EA--(R2 A2 R2 A)4 R2 GRGDSPA-amide] (Ac-EARRAARRARRAARRARRAARRARRAARRARRGRGDSPA-NH2)
Maximum hemodynamic change, Mean BP [1]: -2 mm Mercury | Maximum hemodynamic change, CO [1]: -3% | Maximum hemodynamic change, HR [1]: -3 beats/min | Maximum hemodynamic change, VO2 [1]: -4% | Total Toxicity Score [1]: -1.43 ± 0.61 | Maximum hemodynamic change, Mean BP [2]: -1 mm Mercury | Total Toxicity Score (TTS) [2]: -2.68 and -2.68 ± 0.88 | Maximum hemodynamic change, CO [2]: -3% | Maximum hemodynamic change, HR [2]: -3 beats/min | Maximum hemodynamic change, VO2 [2]: -7% | IIa Reversal [3]: 100% | Xa Reversal [3]: 72% | Platelet (percent change in platelet count) [4]: -27% | IIa Reversal [5]: 100% | Xa Reversal [5]: 100% | Platelet (percent change in platelet count) [6]: -31%

P(K2 O2 G4)3 K2 O2 [[+8]]
in vivo heparin reversal (summary) ([7]; dogs, standard heparin): not capable of effect heparin reversal | Percent reversal of heparin anticoagulation, ACT ([7]; dogs, 3 min post-administration): 7% | Percent reversal of heparin anticoagulation, ACT ([7]; dogs, 30 min): 37% | Percent reversal of heparin anticoagulation, APTT ([7]; same study, 3 min): 0% | Percent reversal of heparin anticoagulation, FNa ([7]; same study, 3 min): 8% | Percent reversal of heparin anticoagulation, FXa ([7]; same study, 3 min): -1% | Percent reversal of heparin anticoagulation, PT ([7]; same study, 3 min): 21% | Percent reversal of heparin anticoagulation, TCT ([7]; same study, 3 min): 0% | Percent reversal of heparin anticoagulation, APTT ([7]; same study, 30 min): 50% | Percent reversal of heparin anticoagulation, FXa ([7]; same study, 30 min): 9% | Percent reversal of heparin anticoagulation, PT ([7]; same study, 30 min): 50% | Percent reversal of heparin anticoagulation, TCT ([7]; same study, 30 min): 0% | ΔHR [8]: -9 | ΔMAP ([8]; average maximum decline in first five minutes after peptide administration): -1 | average total toxicity score (TTS±SD) ([8]; first 5 minutes after reversal, more negative = more toxic): -1.9±1.1 | ΔCO ([8]; maximum percent change): -8% | ΔVO2 ([8]; maximum percent change): -8%

Reference: patent US5919761A, “Peptides for heparin and low molecular weight heparin anticoagulation reversal” (The Board of Regents of the University of Michigan, priority 1995, dated 1999)
